Experimental data as given in US11395489B2, “Microbiocidal picolinamide derivatives” (Syngenta Participations AG, priority 2017, dated 2022).

Columns and labels:
[1] = system: Monocraphella nivalis (Microdochium nivale); experiment: Monocraphella nivalis (Microdochium nivale) / liquid culture (Foot Rot Cereals); type: cell-based; settings: 96 h, 200 ppm in the formulation, inhibition of growth determined photometrically 4-5 days after application, read-out: disease control
Method: (§1) Monocraphella nivalis (Microdochium nivale)/Liquid Culture (Foot Rot Cereals) Conidia of the fungus from cryogenic storage are directly mixed into nutrient broth (PDB potato dextrose broth). After placing a (DMSO) solution of test compound into a microtiter plate (96-well format), the nutrient broth containing the fungal spores is added. The test plates are incubated at 24° C. and the inhibition of growth is determined photometrically 4-5 days after application.

[2] = system: Puccinia recondita f. Sp. Tritici; experiment: Puccinia recondita f. sp. tritici / wheat / leaf disc preventative (Brown Rust); type: in vivo; settings: foliar, 168 h, 200 ppm in the formulation, compared to untreated, 7-9 days after application, read-out: disease control
[3] = system: Magnaporthe risea (Pyricularia Oryzae); experiment: whole plant or invertebrate; type: in vivo; settings: foliar, read-out: disease control
[4] = system: Glomerella lacenarium (Colletotrichum lacenarium); experiment: Glomerella lacenarium (Colletotrichum lacenarium) / liquid culture (Anthracnose); type: cell-based; settings: 200 ppm in the formulation, inhibition of growth measured photometrically 3-4 days after application, read-out: disease control
Method: as §1, with “Glomerella lacenarium (Colletotrichum lacenarium)/Liquid” for “Monocraphella nivalis (Microdochium nivale)/Liquid”, “(Anthracnose)” for “(Foot Rot Cereals)”, “measured” for “determined”, “3-4” for “4-5”

[5] = system: Mycosphaerella Raminicola (Septoria tritici); experiment: Mycosphaerella Raminicola (Septoria tritici) / liquid culture (Septoria Blotch); type: cell-based; settings: 200 ppm in the formulation, inhibition of growth determined photometrically 4 to 5 days after application, read-out: disease control
Method: as §1, with “Mycosphaerella Raminicola (Septoria tritici)/Liquid” for “Monocraphella nivalis (Microdochium nivale)/Liquid”, “(Septoria Blotch)” for “(Foot Rot Cereals)”, “4 to 5” for “4-5”

[6] = system: Mycosphaerella arachidis (Cercospora arachidicola); experiment: Mycosphaerella arachidis (Cercospora arachidicola) / liquid culture (Early Leaf Spot); type: cell-based; settings: 96 h, 200 ppm in the formulation, inhibition of growth determined photometrically 4-5 days after application, read-out: disease control
Method: as §1, with “Mycosphaerella arachidis (Cercospora arachidicola)/Liquid” for “Monocraphella nivalis (Microdochium nivale)/Liquid”, “(Early Leaf Spot)” for “(Foot Rot Cereals)”

[7] = system: Botryotinia fuckeliana (Botrytis cinerea); experiment: Botryotinia fuckeliana (Botrytis cinerea) / liquid culture (Gray Mould); type: cell-based; settings: 72 h, 200 ppm in the formulation, inhibition of growth determined photometrically 3-4 days after application, read-out: disease control
Method: as §1, with “Botryotinia fuckeliana (Botrytis cinerea)/Liquid” for “Monocraphella nivalis (Microdochium nivale)/Liquid”, “(Gray Mould)” for “(Foot Rot Cereals)”, “(Vogels” for “(PDB potato dextrose”, “3-4” for “4-5”

[8] = system: Phaeosphaeria Nodorum (Septoria nodorum); experiment: Phaeosphaeria nodorum (Septoria nodorum) / wheat / leaf disc preventative (Glume Blotch); type: in vivo; settings: Parastagonospora nodorum, foliar, 200 ppm in the formulation, compared to untreated, 5-7 days after application, read-out: disease control
Method: Phaeosphaeria Nodorum (Septoria nodorum)/Wheat/Leaf Disc Preventative (Glume Blotch) Wheat leaf segments cv. Kanzler are placed on agar in a multiwell plate (24-well format) and sprayed with the formulated test compound diluted in water. The leaf disks are inoculated with a spore suspension of the fungus 2 days after application. The inoculated test leaf disks are incubated at 20° C. and 75% rh under a light regime of 12 h light/12 h darkness in a climate cabinet and the activity of a compound is assessed as percent disease control compared to untreated when an appropriate level of disease damage appears in untreated check leaf disks (5-7 days after application).

COc1ccnc(C(=O)N[C@@H](C)C(=O)OC(C)C2(c3ccc(OC(F)(F)F)cc3)CC2)c1O (stereo partly drawn) [I.q.006, 1-[1-[4-(trifluoro-methoxy)phenyl]cyclo-propyl]ethyl (2S)-2-[(3-hydroxy-4-methoxy-pyridine-2-carbonyl)amino]propanoate]
≥ 80%: inhibition of growth at 200 ppm [1] | pest or weed control at 200 ppm [2] | pest or weed control at 200 ppm [3] | inhibition of growth at 200 ppm [4] | inhibition of growth at 200 ppm [5] | inhibition of growth at 200 ppm [6] | inhibition of growth at 200 ppm [7]

COc1ccnc(C(=O)N[C@@H](C)C(=O)OC(C)C2(c3ccccc3)CC2)c1O (stereo partly drawn) [I.a.006, 1-(1-phenylcyclopropyl)ethyl (2S)-2-[(3-hydroxy-4-methoxy-pyridine-2-carbonyl)amino]propanoate]
≥ 80%: inhibition of growth at 200 ppm [1] | pest or weed control at 200 ppm [2] | pest or weed control at 200 ppm [3] | inhibition of growth at 200 ppm [5] | inhibition of growth at 200 ppm [6] | inhibition of growth at 200 ppm [7]

COc1ccnc(C(=O)N[C@@H](C)C(=O)OC(C)C2(c3ccc(Cl)cc3)CCCC2)c1O (stereo partly drawn) [I.k.014, 1-[1-(4-chlorophenyl)-cyclopentyl]ethyl (2S)-2-[(3-hydroxy-4-methoxy-pyridine-2-carbonyl)amino]propanoate]
≥ 80%: inhibition of growth at 200 ppm [1] | pest or weed control at 200 ppm [2] | pest or weed control at 200 ppm [3] | inhibition of growth at 200 ppm [4] | inhibition of growth at 200 ppm [5] | inhibition of growth at 200 ppm [6] | inhibition of growth at 200 ppm [7]

COc1ccnc(C(=O)N[C@@H](C)C(=O)OC(C)C2(c3ccc(Cl)cc3)CC2)c1O (stereo partly drawn) [I.k.006, 1-[1-(4-chlorophenyl)-cyclopropyl]ethyl (2S)-2-[(3-hydroxy-4-methoxy-pyridine-2-carbonyl)amino]propanoate]
≥ 80%: inhibition of growth at 200 ppm [1] | pest or weed control at 200 ppm [2] | inhibition of growth at 200 ppm [5] | inhibition of growth at 200 ppm [6] | pest or weed control at 200 ppm [8] | inhibition of growth at 200 ppm [7]

COc1ccnc(C(=O)N[C@@H](C)C(=O)OC(C)C2(c3ccc(F)cc3)CC2c2ccc(F)cc2)c1O (stereo partly drawn) [I.j.011, 1-[1,2-bis(4-fluoro-phenyl)cyclopropyl]-ethyl (2S)-2-[(3-hydroxy-4-methoxy-pyridine-2-carbonyl)-amino]propanoate]
≥ 80%: inhibition of growth at 200 ppm [1] | pest or weed control at 200 ppm [2] | inhibition of growth at 200 ppm [4] | inhibition of growth at 200 ppm [5] | inhibition of growth at 200 ppm [6]

COc1ccnc(C(=O)N[C@@H](C)C(=O)OC(C)C(C)(C)c2ccc(F)cc2)c1O (stereo partly drawn) [I.j.001, [2-(4-fluorophenyl)-1,2-dimethyl-propyl] (2S)-2-[(3-hydroxy-4-methoxy-pyridine-2-carbonyl)-amino]propanoate]
≥ 80%: inhibition of growth at 200 ppm [1] | pest or weed control at 200 ppm [2] | inhibition of growth at 200 ppm [4] | inhibition of growth at 200 ppm [5] | inhibition of growth at 200 ppm [6] | inhibition of growth at 200 ppm [7]

COc1ccnc(C(=O)N[C@@H](C)C(=O)OC(C)C2(c3cccc4ccccc34)CC2)c1O (stereo partly drawn) [I.v.006, 1-[1-(1-naphthyl)cyclo-propyl]ethyl (2S)-2-[(3-hydroxy-4-methoxy-pyridine-2-carbonyl)-amino]propanoate]
≥ 80%: inhibition of growth at 200 ppm [1] | pest or weed control at 200 ppm [2] | inhibition of growth at 200 ppm [4] | inhibition of growth at 200 ppm [5] | inhibition of growth at 200 ppm [6] | pest or weed control at 200 ppm [8]

COc1ccnc(C(=O)N[C@@H](C)C(=O)OC(C)C2(c3cccc4ccccc34)CC2c2ccc(F)cc2)c1O (stereo partly drawn) [I.v.011, 1-[2-(4-fluorophenyl)-1-(1-naphthyl)cyclo-propyl]ethyl (2S)-2-[(3-hydroxy-4-methoxy-pyridine-2-carbonyl)amino]-propanoate]
≥ 80%: pest or weed control at 200 ppm [2] | inhibition of growth at 200 ppm [4] | inhibition of growth at 200 ppm [5] | inhibition of growth at 200 ppm [6]

COc1ccnc(C(=O)N[C@@H](C)C(=O)OC(C)C2(c3ccc(Br)cc3)CCC2)c1O (stereo partly drawn) [I.m.012, 1-[1-(4-bromophenyl)-cyclobutyl]ethyl (2S)-2-[(3-hydroxy-4-methoxy-pyridine-2-carbonyl)amino]propanoate]
≥ 80%: inhibition of growth at 200 ppm [1] | pest or weed control at 200 ppm [2] | pest or weed control at 200 ppm [3] | inhibition of growth at 200 ppm [4] | inhibition of growth at 200 ppm [5] | inhibition of growth at 200 ppm [6] | inhibition of growth at 200 ppm [7]

COc1ccnc(C(=O)N[C@@H](C)C(=O)OC(C)C2(c3ccc(F)cc3)CC2c2ccccc2)c1O (stereo partly drawn) [I.j.010, 1-[1-(4-fluorophenyl)-2-phenyl-cyclopropyl]-ethyl (2S)-2-[(3-hydroxy-4-methoxy-pyridine-2-carbonyl)-amino]propanoate]
≥ 80%: pest or weed control at 200 ppm [2] | inhibition of growth at 200 ppm [4] | inhibition of growth at 200 ppm [5] | inhibition of growth at 200 ppm [6]

COc1ccnc(C(=O)N[C@@H](C)C(=O)OC(C)C(C)(C)c2ccccc2)c1O (stereo partly drawn) [I.a.001, (1,2-dimethyl-2-phenyl-propyl) (2S)-2-[(3-hydroxy-4-methoxy-pyridine-2-carbonyl)amino]propanoate]
≥ 80%: inhibition of growth at 200 ppm [1] | pest or weed control at 200 ppm [2] | inhibition of growth at 200 ppm [5] | inhibition of growth at 200 ppm [6] | pest or weed control at 200 ppm [8] | inhibition of growth at 200 ppm [7]

CCOc1ccc(C2(C(C)OC(=O)[C@H](C)NC(=O)c3nccc(OC)c3O)CC2(F)F)cc1 (stereo partly drawn) [I.u.007, 1-[1-(4-ethoxyphenyl)-2,2-difluorocyclopropyl]-ethyl (2S)-2-[(3-hydroxy-4-methoxy-pyridine-2-carbonyl)amino]propanoate]
≥ 80%: inhibition of growth at 200 ppm [1] | pest or weed control at 200 ppm [2] | pest or weed control at 200 ppm [3] | inhibition of growth at 200 ppm [4] | inhibition of growth at 200 ppm [5] | inhibition of growth at 200 ppm [7]

COc1ccnc(C(=O)N[C@@H](C)C(=O)OC(C)C2(c3ccc(Cl)c(Cl)c3)CC2)c1O (stereo partly drawn) [I.t.006, 1-[1-(3,4-dichloro-phenyl)cyclopropyl]-ethyl (2S)-2-[(3-hydroxy-4-methoxy-pyridine-2-carbonyl)-amino]propanoate]
≥ 80%: inhibition of growth at 200 ppm [1] | pest or weed control at 200 ppm [2] | pest or weed control at 200 ppm [3] | inhibition of growth at 200 ppm [4] | inhibition of growth at 200 ppm [5] | inhibition of growth at 200 ppm [6] | inhibition of growth at 200 ppm [7]

COc1ccnc(C(=O)N[C@@H](C)C(=O)OC(C)C2(c3cccc(Br)c3)CC2)c1O (stereo partly drawn) [I.d.006, 1-[1-(3-bromophenyl)-cyclopropyl]ethyl (2S)-2-[(3-hydroxy-4-methoxy-pyridine-2-carbonyl)amino]propanoate]
≥ 80%: inhibition of growth at 200 ppm [1] | pest or weed control at 200 ppm [2] | inhibition of growth at 200 ppm [4] | inhibition of growth at 200 ppm [5] | inhibition of growth at 200 ppm [6] | inhibition of growth at 200 ppm [7]

COc1ccnc(C(=O)N[C@@H](C)C(=O)OC(C)C2(c3cccc4ccccc34)CC2c2ccccc2)c1O (stereo partly drawn) [I.v.010, 1-[1-(1-naphthyl)-2-phenyl-cyclopropyl]-ethyl (2S)-2-[(3-hydroxy-4-methoxy-pyridine-2-carbonyl)-amino]propanoate]
≥ 80%: pest or weed control at 200 ppm [2] | inhibition of growth at 200 ppm [4] | inhibition of growth at 200 ppm [5] | inhibition of growth at 200 ppm [6]
